One assay addresses Mucolipin-3 (Homo sapiens, UniProt Q8TDD5). In words: Dose response cell-based high-throughput screening assay for agonists of the transient receptor potential channel ML3 (TRPML3). [Related pubchem assays: 1526, 1424, 1448 ]. Format: functional.
The target of the next assay is Ion channel NompC (Danio rerio, UniProt Q7T1G6). Nature of the assay: Fluorescence counterscreen assay for TRPML3 agonists: dose response cell-based high-throughput screening assay to identify agonists of the transient receptor potential channel N1 (TRPN1). [Related pubchem assays: 1526, 1424, 1448 ]. Format: functional.
Assay [1] is described as follows: A High Throughput Confirmatory Assay used to Identify Novel Compounds that Inhibit Mycobacterium Tuberculosis in the absence of Glycerol. Format: functional.
Assay [2] can be described thus: inhibitors of Bluetongue virus cytopathic effect, confirmation, arbovirus, BSR cells (AID 1250).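 Also: protection from viral cytopathic effect measured as cell viability by ATP luminescence.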 Format: functional.
Assay [3] has as its target T1, Voltage-gated N-type calcium channel alpha-1B subunit/Amyloid beta A4 precursor protein-binding family A member 1 (Homo sapiens, UniProt Q00975+Q02410). In words: disruptors of Mint-PDZ/N-type channel peptide interaction – biochemical, HTRF, set 2, SAR follow-up (AID 434980). Format: functional.
Assay [4] has as its target T2, Estrogen receptor beta (Homo sapiens, UniProt Q92731). In words: ERβ–SRC-3 coactivator interaction inhibitors, confirmation, orthogonal assay, biochemical, ELISA, streptavidin-HRP readout (AID 1060).
The next assay concerns the target SUMO E1/E2 (Homo sapiens, UniProt P63279+Q9UBE0+Q9UBT2). In words: SAR analysis of SUMOylation using HTRF in an in-Vitro dose response assay. [Related pubchem assays (depositor defined):AID2006, AID2011, AID2018, AID2069, AID2658]. Format: functional.
Assay [5] has as its target T1, Voltage-gated N-type calcium channel alpha-1B subunit/Amyloid beta A4 precursor protein-binding family A member 1. In words: disruptors of Mint-PDZ/N-type channel peptide interaction – biochemical, HTRF, SAR follow-up (AID 2489). In kind it is functional.
For another assay, the target named is T3, Bcl-2-like protein 10 (Homo sapiens, UniProt Q9HD36).
T3 sequence (Q9HD36 whole entry): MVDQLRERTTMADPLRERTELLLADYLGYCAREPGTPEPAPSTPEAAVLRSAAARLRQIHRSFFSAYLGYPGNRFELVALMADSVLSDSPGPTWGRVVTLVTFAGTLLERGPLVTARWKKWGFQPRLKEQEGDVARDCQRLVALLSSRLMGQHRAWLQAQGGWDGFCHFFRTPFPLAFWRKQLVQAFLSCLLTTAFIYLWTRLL
Nature of the assay: displacers of TR3 peptide from Bcl-B, primary screen, selectivity assay for Bfl-1 inhibitor project, biochemical, fluorescence polarization, FITC-TR3 peptide (AID 748).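 Also: fluorescence polarization from a fluorescein-labelled TR3 peptide binding purified Bcl-B.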

For assay [6], the target named is T2, Estrogen receptor beta.
For assay [7], the target named is Sphingosine 1-phosphate receptor 2 (Homo sapiens, UniProt O95136). In words: Dose Response Cell Based Assay for Agonists of the S1P2 Receptor of Purchased Analogues. [Related pubchem assays: 729, 843, 854, 736 ]. In kind it is functional.
The target of assay [8] is T4, Dual specificity protein phosphatase 6 (Rattus norvegicus, UniProt Q64346).
T4 sequence (Q64346 whole entry): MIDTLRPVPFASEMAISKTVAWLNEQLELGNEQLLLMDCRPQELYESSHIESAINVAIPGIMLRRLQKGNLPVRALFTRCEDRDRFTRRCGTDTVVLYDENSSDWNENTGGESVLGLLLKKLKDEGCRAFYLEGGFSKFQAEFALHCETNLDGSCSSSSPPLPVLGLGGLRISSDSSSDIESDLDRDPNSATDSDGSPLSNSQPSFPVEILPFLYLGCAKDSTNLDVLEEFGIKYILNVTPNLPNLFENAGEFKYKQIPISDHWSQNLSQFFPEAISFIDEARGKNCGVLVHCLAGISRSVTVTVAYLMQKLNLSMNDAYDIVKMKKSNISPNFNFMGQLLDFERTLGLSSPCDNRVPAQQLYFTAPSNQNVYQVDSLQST
In words: MKP-3 phosphatase inhibitors, primary screen, biochemical, rat enzyme, in vitro (AID 425).

The target in assay [9] is T5, Apoptotic protease-activating factor 1 (Homo sapiens, UniProt O14727).
T5 sequence (O14727 whole entry): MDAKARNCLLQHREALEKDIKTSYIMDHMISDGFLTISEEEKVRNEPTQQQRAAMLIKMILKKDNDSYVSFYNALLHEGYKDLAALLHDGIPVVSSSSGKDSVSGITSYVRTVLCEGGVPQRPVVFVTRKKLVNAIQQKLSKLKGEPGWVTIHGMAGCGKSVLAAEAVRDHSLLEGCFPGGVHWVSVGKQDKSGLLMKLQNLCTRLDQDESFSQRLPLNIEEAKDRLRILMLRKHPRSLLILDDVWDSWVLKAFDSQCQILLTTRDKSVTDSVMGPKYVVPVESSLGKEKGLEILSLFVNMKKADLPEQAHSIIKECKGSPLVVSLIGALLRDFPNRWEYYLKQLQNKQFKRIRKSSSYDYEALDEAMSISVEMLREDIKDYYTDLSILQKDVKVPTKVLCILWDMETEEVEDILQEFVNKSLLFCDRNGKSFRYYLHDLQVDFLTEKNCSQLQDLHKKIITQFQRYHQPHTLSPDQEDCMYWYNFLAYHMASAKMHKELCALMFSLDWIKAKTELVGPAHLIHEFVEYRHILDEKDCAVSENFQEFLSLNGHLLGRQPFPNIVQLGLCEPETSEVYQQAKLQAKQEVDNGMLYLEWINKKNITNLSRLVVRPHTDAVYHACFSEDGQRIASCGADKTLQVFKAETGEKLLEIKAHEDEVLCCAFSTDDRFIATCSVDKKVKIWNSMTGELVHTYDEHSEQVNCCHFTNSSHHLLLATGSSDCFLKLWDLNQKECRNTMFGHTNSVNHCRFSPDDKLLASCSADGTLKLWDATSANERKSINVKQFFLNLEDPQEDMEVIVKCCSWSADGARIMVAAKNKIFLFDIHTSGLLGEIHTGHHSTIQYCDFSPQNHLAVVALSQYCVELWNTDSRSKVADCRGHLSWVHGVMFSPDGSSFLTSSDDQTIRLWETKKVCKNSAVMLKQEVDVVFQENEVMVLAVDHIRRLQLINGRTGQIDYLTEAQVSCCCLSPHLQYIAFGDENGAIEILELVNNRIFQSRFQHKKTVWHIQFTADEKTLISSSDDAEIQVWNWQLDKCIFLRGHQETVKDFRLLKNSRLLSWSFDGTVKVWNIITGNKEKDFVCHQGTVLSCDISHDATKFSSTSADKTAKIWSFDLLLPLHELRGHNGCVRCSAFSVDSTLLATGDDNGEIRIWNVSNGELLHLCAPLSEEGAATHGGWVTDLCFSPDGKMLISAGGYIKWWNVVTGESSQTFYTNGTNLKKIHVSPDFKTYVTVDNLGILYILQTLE
Format: functional.

For assay [10], the target named is T6, Histone-lysine N-methyltransferase NSD2 (Homo sapiens, UniProt O96028).
T6 sequence (O96028 whole entry): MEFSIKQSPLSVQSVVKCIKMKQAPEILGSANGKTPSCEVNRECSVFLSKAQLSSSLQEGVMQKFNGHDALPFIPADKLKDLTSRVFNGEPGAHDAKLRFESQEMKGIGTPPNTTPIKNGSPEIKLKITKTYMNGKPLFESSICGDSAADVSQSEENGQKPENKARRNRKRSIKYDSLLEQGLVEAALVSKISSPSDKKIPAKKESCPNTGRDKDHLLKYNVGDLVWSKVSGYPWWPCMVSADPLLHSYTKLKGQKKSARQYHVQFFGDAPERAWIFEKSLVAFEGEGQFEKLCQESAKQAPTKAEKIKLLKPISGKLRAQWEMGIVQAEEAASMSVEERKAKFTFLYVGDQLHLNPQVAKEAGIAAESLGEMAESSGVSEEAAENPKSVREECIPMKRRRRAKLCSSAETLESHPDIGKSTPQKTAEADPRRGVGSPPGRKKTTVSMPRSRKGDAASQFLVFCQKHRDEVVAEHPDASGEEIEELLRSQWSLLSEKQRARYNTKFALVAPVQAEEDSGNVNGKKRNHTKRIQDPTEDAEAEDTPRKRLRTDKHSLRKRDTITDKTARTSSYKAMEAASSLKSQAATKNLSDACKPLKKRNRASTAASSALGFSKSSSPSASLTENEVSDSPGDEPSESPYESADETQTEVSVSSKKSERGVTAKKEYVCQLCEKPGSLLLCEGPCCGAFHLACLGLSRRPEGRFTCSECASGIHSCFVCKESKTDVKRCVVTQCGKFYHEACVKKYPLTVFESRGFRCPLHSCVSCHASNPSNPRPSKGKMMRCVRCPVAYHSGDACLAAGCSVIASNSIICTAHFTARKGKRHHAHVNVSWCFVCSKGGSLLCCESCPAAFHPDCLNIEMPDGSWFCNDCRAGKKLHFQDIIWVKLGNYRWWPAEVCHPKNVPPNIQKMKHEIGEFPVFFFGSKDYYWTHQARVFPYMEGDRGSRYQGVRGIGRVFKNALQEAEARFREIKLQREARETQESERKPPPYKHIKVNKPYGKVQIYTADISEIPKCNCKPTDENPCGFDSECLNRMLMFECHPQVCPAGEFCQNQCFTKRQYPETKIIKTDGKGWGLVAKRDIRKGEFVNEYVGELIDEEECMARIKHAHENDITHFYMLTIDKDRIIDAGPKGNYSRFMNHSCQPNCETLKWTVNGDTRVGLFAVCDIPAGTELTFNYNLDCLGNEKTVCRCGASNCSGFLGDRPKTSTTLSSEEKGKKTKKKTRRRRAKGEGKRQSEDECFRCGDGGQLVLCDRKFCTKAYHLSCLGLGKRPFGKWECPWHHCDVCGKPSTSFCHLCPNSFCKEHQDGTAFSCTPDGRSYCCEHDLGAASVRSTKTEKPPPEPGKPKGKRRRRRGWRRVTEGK
Format: biochemical.

Assay [11] concerns the target T7, RNA-editing ligase 1, mitochondrial (Trypanosoma brucei brucei, UniProt P86926).
T7 sequence (P86926 whole entry): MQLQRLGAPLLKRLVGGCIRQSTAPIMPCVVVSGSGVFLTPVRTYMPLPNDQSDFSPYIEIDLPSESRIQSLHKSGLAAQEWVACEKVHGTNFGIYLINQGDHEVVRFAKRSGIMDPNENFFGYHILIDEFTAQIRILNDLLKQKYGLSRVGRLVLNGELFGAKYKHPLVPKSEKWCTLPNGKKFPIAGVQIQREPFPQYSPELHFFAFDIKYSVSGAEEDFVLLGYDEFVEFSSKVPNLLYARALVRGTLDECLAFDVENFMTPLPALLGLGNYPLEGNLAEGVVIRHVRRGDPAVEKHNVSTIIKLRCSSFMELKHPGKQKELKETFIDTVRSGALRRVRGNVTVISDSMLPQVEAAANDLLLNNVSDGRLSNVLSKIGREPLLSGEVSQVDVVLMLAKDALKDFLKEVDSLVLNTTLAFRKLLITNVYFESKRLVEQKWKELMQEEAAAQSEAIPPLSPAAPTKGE
In words: TbREL1 ligase inhibitors, dose response, biochemical, fluorescence, Trypanosoma brucei (AID 1117295). Format: functional.

Assay [12] can be described thus: microbe, parasite or virus in culture. In kind it is functional. As to conditions: Mycobacterium tuberculosis.
The next assay deals with T8, Estrogen receptor (Homo sapiens, UniProt P03372).
T8 sequence (P03372 whole entry): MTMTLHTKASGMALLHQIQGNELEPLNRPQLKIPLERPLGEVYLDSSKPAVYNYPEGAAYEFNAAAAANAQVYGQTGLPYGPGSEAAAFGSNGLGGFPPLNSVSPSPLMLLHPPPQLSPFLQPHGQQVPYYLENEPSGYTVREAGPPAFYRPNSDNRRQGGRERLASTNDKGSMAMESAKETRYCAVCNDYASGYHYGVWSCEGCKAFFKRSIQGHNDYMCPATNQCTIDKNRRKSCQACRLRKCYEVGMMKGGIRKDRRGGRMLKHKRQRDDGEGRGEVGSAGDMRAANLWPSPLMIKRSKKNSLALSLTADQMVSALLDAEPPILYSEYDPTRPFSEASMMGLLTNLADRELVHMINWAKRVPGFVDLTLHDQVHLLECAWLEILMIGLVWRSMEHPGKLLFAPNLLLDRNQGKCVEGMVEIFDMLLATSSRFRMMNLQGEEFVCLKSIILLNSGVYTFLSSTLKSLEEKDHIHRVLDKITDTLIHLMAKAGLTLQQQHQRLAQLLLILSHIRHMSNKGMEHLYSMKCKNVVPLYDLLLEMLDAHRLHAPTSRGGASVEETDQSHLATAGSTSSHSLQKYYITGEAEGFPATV

Calls of active or inactive are those of the source. Where only a bound is given, the exact number is not on record here.

T2 sequence (Q92731 whole entry): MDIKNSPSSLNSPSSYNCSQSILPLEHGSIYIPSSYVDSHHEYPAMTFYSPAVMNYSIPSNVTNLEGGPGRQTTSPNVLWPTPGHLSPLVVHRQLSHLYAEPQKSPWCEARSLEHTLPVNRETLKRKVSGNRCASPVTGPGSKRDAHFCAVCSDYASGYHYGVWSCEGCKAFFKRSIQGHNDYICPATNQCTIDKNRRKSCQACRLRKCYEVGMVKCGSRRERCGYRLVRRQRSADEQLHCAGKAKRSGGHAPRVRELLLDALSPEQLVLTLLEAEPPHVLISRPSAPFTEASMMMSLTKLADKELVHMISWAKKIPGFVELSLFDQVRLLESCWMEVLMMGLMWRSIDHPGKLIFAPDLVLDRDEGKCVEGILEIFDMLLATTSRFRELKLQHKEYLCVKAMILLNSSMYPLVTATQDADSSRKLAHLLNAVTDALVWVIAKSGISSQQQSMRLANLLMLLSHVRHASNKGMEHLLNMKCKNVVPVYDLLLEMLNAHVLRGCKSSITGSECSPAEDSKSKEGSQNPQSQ
Sequence of Ion channel NompC (Q7T1G6 whole entry): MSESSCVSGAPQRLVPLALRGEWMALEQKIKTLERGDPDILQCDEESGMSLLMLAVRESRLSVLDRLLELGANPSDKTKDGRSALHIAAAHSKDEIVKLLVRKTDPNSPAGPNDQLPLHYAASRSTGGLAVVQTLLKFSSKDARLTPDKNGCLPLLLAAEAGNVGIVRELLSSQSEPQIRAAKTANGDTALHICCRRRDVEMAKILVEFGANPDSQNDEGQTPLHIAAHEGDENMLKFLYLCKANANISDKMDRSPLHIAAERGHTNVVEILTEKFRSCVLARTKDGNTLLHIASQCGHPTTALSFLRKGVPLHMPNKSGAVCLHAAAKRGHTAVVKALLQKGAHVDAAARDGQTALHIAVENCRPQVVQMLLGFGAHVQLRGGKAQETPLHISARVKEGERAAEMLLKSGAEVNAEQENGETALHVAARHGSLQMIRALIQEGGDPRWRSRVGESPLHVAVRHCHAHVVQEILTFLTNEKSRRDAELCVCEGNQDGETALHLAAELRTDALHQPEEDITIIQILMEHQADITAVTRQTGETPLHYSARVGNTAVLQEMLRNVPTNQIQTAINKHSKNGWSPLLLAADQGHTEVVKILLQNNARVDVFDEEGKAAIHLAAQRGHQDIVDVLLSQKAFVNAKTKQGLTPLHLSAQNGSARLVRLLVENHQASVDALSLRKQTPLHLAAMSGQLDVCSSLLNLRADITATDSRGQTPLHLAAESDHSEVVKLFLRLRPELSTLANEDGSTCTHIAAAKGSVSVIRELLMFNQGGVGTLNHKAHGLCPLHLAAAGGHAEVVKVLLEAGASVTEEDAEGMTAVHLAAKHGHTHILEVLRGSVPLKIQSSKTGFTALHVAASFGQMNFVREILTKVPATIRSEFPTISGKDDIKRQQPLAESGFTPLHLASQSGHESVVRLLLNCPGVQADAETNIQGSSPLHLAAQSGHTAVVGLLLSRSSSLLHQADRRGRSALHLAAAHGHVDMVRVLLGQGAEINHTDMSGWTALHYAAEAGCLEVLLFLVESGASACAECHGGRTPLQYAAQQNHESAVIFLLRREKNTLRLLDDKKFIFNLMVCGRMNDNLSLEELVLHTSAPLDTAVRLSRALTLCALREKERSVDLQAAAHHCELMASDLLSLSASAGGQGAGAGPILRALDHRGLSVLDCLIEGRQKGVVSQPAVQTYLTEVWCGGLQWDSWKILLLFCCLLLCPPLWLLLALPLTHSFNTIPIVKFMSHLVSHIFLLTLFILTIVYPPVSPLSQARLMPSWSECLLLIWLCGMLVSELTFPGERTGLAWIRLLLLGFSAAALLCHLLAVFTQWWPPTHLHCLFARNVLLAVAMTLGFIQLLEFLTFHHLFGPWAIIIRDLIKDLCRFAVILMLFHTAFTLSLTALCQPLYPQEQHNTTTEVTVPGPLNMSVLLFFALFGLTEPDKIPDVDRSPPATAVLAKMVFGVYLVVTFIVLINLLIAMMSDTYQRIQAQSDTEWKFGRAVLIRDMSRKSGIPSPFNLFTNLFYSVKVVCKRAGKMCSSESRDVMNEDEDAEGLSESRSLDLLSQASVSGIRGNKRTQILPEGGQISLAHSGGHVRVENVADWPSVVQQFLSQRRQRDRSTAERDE
Sequence of Sphingosine 1-phosphate receptor 2 (O95136 whole entry): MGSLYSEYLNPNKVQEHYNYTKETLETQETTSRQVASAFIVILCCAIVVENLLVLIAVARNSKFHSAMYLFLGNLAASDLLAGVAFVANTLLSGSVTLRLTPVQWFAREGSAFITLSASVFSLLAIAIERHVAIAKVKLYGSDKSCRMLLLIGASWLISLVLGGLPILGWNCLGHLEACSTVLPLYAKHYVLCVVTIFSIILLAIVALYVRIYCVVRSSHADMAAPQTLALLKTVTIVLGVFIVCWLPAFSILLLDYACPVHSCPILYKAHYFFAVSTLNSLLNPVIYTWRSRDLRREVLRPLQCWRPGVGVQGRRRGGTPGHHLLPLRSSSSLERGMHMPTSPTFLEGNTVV
Sequence of Mucolipin-3 (Q8TDD5 whole entry): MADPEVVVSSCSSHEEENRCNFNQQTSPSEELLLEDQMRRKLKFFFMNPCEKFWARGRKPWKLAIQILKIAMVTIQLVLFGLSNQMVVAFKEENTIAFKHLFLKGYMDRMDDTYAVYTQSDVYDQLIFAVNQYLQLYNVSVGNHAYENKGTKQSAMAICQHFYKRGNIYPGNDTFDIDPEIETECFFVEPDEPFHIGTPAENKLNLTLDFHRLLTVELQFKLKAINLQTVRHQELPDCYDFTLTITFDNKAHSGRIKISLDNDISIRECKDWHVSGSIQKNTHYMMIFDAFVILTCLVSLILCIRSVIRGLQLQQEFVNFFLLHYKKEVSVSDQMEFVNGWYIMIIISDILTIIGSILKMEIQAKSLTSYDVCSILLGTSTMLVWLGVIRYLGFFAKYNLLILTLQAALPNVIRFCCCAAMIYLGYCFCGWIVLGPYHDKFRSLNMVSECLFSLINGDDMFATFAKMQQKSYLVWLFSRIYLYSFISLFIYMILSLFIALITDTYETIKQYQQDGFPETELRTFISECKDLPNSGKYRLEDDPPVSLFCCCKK
Sequence of SUMO E1/E2 (Q9UBE0 whole entry): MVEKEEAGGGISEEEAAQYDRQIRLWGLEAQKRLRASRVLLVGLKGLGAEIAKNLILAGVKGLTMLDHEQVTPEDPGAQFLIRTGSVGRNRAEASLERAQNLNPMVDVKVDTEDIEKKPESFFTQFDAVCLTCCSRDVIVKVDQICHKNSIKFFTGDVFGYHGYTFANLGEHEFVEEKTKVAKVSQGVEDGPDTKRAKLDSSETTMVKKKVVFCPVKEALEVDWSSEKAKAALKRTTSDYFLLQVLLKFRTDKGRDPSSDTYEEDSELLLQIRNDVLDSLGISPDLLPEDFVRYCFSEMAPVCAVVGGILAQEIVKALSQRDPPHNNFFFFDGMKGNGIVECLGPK
Sequence of SUMO E1/E2 (Q9UBT2 whole entry): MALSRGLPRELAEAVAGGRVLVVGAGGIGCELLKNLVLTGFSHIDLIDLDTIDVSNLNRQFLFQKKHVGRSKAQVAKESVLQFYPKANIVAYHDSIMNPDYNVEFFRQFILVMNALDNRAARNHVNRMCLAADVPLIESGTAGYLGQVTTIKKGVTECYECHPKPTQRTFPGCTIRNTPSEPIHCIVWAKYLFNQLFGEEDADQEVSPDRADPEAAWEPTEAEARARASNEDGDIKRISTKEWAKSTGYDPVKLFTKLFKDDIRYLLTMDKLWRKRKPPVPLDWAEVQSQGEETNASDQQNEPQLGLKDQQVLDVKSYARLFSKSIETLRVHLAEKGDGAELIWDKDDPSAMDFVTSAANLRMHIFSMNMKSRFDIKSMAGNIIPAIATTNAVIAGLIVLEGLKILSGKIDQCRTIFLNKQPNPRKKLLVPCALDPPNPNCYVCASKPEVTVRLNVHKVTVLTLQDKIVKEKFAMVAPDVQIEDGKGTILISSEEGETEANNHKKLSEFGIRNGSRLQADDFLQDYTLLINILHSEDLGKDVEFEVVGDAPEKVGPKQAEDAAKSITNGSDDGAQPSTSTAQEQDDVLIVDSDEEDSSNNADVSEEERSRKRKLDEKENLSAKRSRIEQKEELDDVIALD
Sequence of SUMO E1/E2 (P63279 whole entry): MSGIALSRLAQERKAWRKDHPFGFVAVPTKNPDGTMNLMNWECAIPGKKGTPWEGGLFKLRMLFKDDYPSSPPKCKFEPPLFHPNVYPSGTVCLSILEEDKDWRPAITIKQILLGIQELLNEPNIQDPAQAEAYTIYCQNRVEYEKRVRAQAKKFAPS

For the molecule `CN(c1ccccc1)S(=O)(=O)c1cccc(Cl)c1Cl`, the EC50 is 4.52 µM (active) on Mucolipin-3 and > 29.9 µM (not active) at Ion channel NompC.

Turning to `Cn1c(=O)n(Cc2ccccc2)c(=O)c2c1nc1n2CCCN1C1CCCCC1`, the IC50 in [1] was > 100 µM (active).

In the case of `CCOC(=O)c1cnc2c(-c3ccc(F)cc3)cnn2c1C(F)(F)F`, the 50% inhibitory concentration (IC50) in assay [2] was 23.1 µM (active).

For `COc1cccc(CN(CC2CCCO2)S(=O)(=O)c2ccc(S(=O)(=O)N(C)C)cc2)c1` (stereo not drawn), the EC50 on Mucolipin-3 and on Ion channel NompC was > 29.9 µM (not active) throughout.

As to `O=C(Nc1ccccc1N1CCOCC1)c1cc(-c2ccco2)nc2ccccc12`, the IC50 in assay [3] is 9.81 µM (active); on Estrogen receptor beta [4] it was 1.04 µM (not active); at SUMO E1/E2 it was 48.2 µM (active); in [5], 39.3 µM (active); at Bcl-2-like protein 10, 95.1 µM (inactive); on Estrogen receptor beta [6], 3.78 µM (active).

As for `Cc1cc(C(=O)CN2C(=O)C(=O)N(C)C2=O)c(C)n1Cc1ccccc1`, in assay [7], the half-maximal effective concentration (EC50) was 22.3 µM (not active).

For the molecule `CCCCNC(=O)c1c(N)n(CCCOC)c2nc3ccccc3nc12`, the IC50 in [8] is > 100 µM (not active); in assay [9], 27.7 µM (active); in [11] it was 17.9 µM (inactive). Besides, in assay [10], the AC50 is 8.05 µM (active).

On to `Cc1cc(C(=O)COC(=O)Cn2cnc3ccccc3c2=O)c(C)n1Cc1ccccc1`, for which, in assay [7], the EC50 is given as > 30 µM (not active).

As to `COc1ccc([C@H]2CC(=O)C=C(c3ccc4c5c(cccc35)CC4)C2)cc1`, the CC50 in assay [12] was > 40 µM (active). For the same molecule, the IC50 in assay [1] is > 100 µM (active).

Regarding `CCOC(=O)C1=c2/c(=C/c3ccccc3OC)c(N)c(C#N)n2C(=O)C(c2ccccc2OC)S1` (stereo not drawn), the half-inhibitory concentration (IC50) is 78.5 µM (not active) against Estrogen receptor beta [4], 9.8 µM (active) at Estrogen receptor and > 50 µM (not active) against Estrogen receptor beta [6].

The record behind these values is ChEMBL document CHEMBL1201862, “PubChem BioAssay data set” (2004).
